One experiment deals with SD rats. As to the kind of experiment: Oral glucose tolerance test (OGTT) in rats; single injection; 1 mg/kg. Format: in vivo. The arrangement: Change in AUC (mg/dL*min): unit not given here. The following applies: for Blood Glucose AUC (mg/dL*min) Mean / Change in AUC (mg/dL*min) / % Glucose Reduction (Blood Glucose AUC0-120 min) / Comp/std Liraglutide (ratio of % glucose reduction) / blood glucose lowering effect vs liraglutide: OGTT; for Blood Glucose AUC (mg/dL*min) Mean / Change in AUC (mg/dL*min) / blood glucose lowering effect vs liraglutide: 1 mg/Kg; for Blood Glucose AUC (mg/dL*min) Mean: Exp. 2; for Change in AUC (mg/dL*min): Exp. 2, vs control group; for % Glucose Reduction (Blood Glucose AUC0-120 min) / Comp/std Liraglutide (ratio of % glucose reduction): 1 mg/Kg dose, after 24 hrs; for blood glucose lowering effect vs liraglutide: at 24 hrs. Here is the method: (§1) Animals were divided into three groups—a normal control group, a test group and a third semaglutide group, with 4 animals in each group. The animals were fasted for 12 hours before initiation of OGTT. To the test group animals, the Compound 1 was injected subcutaneously at 1 mg/kg dose. To the semaglutide group, a dose of 1 mg/kg was injected subcutaneously. After 22 hrs, 166 hrs and 334 hrs of subcutaneous injection of test drug or semaglutide, blood glucose was measured with blood glucose meter (time 0 measurements). All the animals were then given 2 g/kg of glucose solution orally. Blood glucose was measured at 20, 40, 60, 90 and 120 minutes following glucose challenge. Body weight and food intake was recorded. Blood glucose data was analyzed using Two way ANOVA followed by Bonferroni posttests using PRISM (Graph Pad version 5.03). Data of Blood glucose AUC0-120 min, was analyzed using t test.
as §1, with “animals,” for “animals, the”, “1, Compound 13 and Compound 16 were” for “1 was”, “compound” for “drug”

A short description of experiment [1]: Food intake and body weight recorded in the rat OGTT study. In kind it is in vivo, rats. The following applies: 1 mg/Kg; for Body Weight Change (%) Mean / Food Consumption (g) Mean: Exp. 2. The method, then: as §1
as §1, with “animals,” for “animals, the”, “1, Compound 13 and Compound 16 were” for “1 was”, “compound” for “drug”

Experiment [2] relates to db/db mice (diabetic mouse model). As to the kind of experiment: Separate db/db diabetic mouse study, q2d*15 up to day 28, recovery period day 29 to day 45. Format: in vivo. The following applies: for Blood Glucose AUC (Day 30-37) % Change vs Control / Blood Glucose AUC (Day 30-37) (mg/dL*days) Mean / Blood Glucose AUC (Day 38-45) % Change vs Control / Blood Glucose AUC (Day 38-45) (mg/dL*days) Mean: recovery period. The method, then: The study was performed in similar manner as above on diabetic mouse model. The animals were divided into three treatment groups—a diabetic control group, a test group and a semaglutide treatment group. The representative compounds of the present disclosure, Compound 1, Compound 13 and Compound 16, were injected subcutaneously at 3.04 or 6.078 nM dose (every alternate day up to day 28 (q2d*15). The same dosage regimen was administered in semaglutide treatment group. Measurements of blood glucose levels and body weight were done daily. % HbA1c, Insulin was measured on Day 0, day 14 and day 29. Cumulative food intake and body weight change was calculated on day 14 and 29. % HbA1c, Insulin data was analyzed by two way ANOVA followed by Bonferroni's posttests using PRISM (Graph Pad version 5.03). Whereas Blood Glucose AUC, Body weight change and Cumulative food intake data was analyzed by one way ANOVA followed by Bonferroni's posttests using PRISM (Graph Pad version 5.03). From day 29 to day 45, animals were kept on recovery period during which no drug treatment was given. Blood Glucose and Body weight was measured during this period. On day 45, Body weight Changes, % HbA1c, Insulin was measured.

The mark [3] stands for this setting: earlier dose 3.04 nM (3.4 nM given for Compound 16).
The mark [4] stands for this setting: recovery study, day 45, earlier dose 3.04 nM.
Where [5] appears, read: recovery study, day 45, earlier dose 6.078 nM (6.0788 nM given for Compound 13).

Marks after values point to notes of the source that are not given here. Where no end group is shown, it is not given here. Moiety B = not defined here

For “Compound 16: SEQ ID NO: 05, acylated with Moiety D (HXXXGTFTSDVSSYLXGQAAXEFXAWLVRGRGXX; lipidated side chain; (2)..(2) Xaa = Aib; (3)..(3) Xaa = absent.; (4)..(4) Xaa = Glu.; (16)..(16) Xaa = Glu.; (21)..(21) Lys is substituted; (24)..(24) Xaa is Ile.; (33)..(33) Xaa is Leu.; (34)..(34) Xaa is absent.)”, the “Blood Glucose AUC (mg/dL*min) Mean” value with SD rats (22 hr) was found to be 1646 mg·min/dL; with SD rats (168 hr), 4283 mg·min/dL; with SD rats (336 hr), 8295.0 mg·min/dL. In addition, the “Change in AUC (mg/dL*min)” value is recorded as −80.7 in the experiment with SD rats (22 hr), −57.6 in the experiment on SD rats (168 hr) and −2.3 in the experiment on SD rats (336 hr). The “reduction in blood glucose AUC” value in the experiment with SD rats (after 168 hrs of injection, 1 mg/kg) is given as “about 60%”. The results for the “Body Weight Change (%) Mean” value in experiment [1] (48 h), in experiment [1] (154 h) and in experiment [1] (324 h) were −10.7%, −7.0% and −4.3%, respectively. Also, the figures for the “Food Consumption (g) Mean” value in experiment [1] (48 h) and in experiment [1] (324 h) were 5.9 g and 104.3 g, respectively. The “food consumed vs animals administered with semaglutide” value in experiment [1] (text on Table 8) is reported as “consumed significantly less food”. Moreover, the “lowering of body weight” value in experiment [1] (text on Table 8) is given as “substantial lowering of body weight”. Also, the “Blood Glucose AUC (Day 0-29) % Change Vs Control” value is recorded as −44.54% in experiment [2] (3.04 nM, q2d*15) and −52.29% in experiment [2] (6.078 nM, q2d*15). The “Blood Glucose AUC (Day 0-29) (mg/dL*days) Mean” value is listed as 9399.0*** mg/dL*days in experiment [2] (3.04 nM, q2d*15) and 8086.1***## mg/dL*days in experiment [2] (6.078 nM, q2d*15). Besides, the “Body Weight Change Day 29, % Change vs Day 0 Mean” value is −1.4% in experiment [2] (3.04 nM, q2d*15) and −5.5% in experiment [2] (6.078 nM, q2d*15). In addition, the “Cumulative Food Intake (g) Day 0-29 Mean” value came to 77.4 g in experiment [2] (3.04 nM, q2d*15) and 66.7 g in experiment [2] (6.078 nM, q2d*15). The “% HbA1C Mean” value was 7.74% in experiment [2] (Day 0, 3.04 nM, q2d*15); 7.83% in experiment [2] (Day 0, 6.078 nM, q2d*15); 5.67 ***# % in experiment [2] (Day 14, 3.04 nM, q2d*15); 5.64 ***# % in experiment [2] (Day 14, 6.078 nM, q2d*15); 5.33 ***# % in experiment [2] (Day 29, 3.04 nM, q2d*15); 5.16 ***# % in experiment [2] (Day 29, 6.078 nM, q2d*15). Besides, the entries for the “% HbA1C Mean” value in experiment [2] (setting [4]) and in experiment [2] (setting [5]) were 7.1* % and 7.2* %, respectively. The “Insulin (ng/mL) Mean” value in experiment [2] (Day 0, 3.04 nM, q2d*15) is 13.9 ng/mL; in experiment [2] (Day 0, 6.078 nM, q2d*15), 21.8 ng/mL; in experiment [2] (Day 14, 3.04 nM, q2d*15), 50.8* ng/mL; in experiment [2] (Day 14, 6.078 nM, q2d*15) it was 58.1** ng/mL; in experiment [2] (Day 29, 3.04 nM, q2d*15) it was 53.8** ng/mL; in experiment [2] (Day 29, 6.078 nM, q2d*15), 68.2*** ng/mL. For the same substance, the figures for the “Insulin (ng/mL) Mean” value in experiment [2] (setting [4]) and in experiment [2] (setting [5]) were 15.5 ng/mL and 18.4 ng/mL, respectively. Moreover, the “HbA1c, blood glucose, food consumption and body weight vs control” value in experiment [2] (about 3 nM and 6 nM dose) is “significant reduction”. Also, the entries for the “Blood Glucose AUC (Day 30-37) % Change vs Control” value in experiment [2] (setting [3]) and in experiment [2] (earlier dose 6.078 nM) were −32.62% and −39.65%, respectively. In addition, the “Blood Glucose AUC (Day 30-37) (mg/dL*days) Mean” value in experiment [2] (setting [3]) is recorded as 2420.0** mg/dL*days; in experiment [2] (earlier dose 6.078 nM) it was 2167.7*** mg/dL*days. Also, the “Blood Glucose AUC (Day 38-45) % Change vs Control” value was −8.82% in experiment [2] (setting [3]) and −12.97% in experiment [2] (earlier dose 6.078 nM). Also, the “Blood Glucose AUC (Day 38-45) (mg/dL*days) Mean” value in experiment [2] (setting [3]) is given as 3284.0* mg/dL*days; in experiment [2] (earlier dose 6.078 nM), 3134.7** mg/dL*days. Also, the “Delta HbA1C vs. DC” value in experiment [2] (setting [4]) is −1.4; in experiment [2] (setting [5]), −1.3. Moreover, the “Body Weight % Change vs Day 45 Mean” value in experiment [2] (recovery study, earlier dose 3.04 nM) was 6.1%; in experiment [2] (recovery study, earlier dose 6.078 nM (6.0788 nM given for Compound 13)), 5.7%.

For “Compound 7: SEQ ID NO: 05, Moiety B; liraglutide with 2nd amino acid Ala replaced with Aib and additional 32nd amino acid Leu (HXXXGTFTSDVSSYLXGQAAXEFXAWLVRGRGXX; (2)..(2) Xaa = Aib; (3)..(3) Xaa = absent.; (4)..(4) Xaa = Glu.; (16)..(16) Xaa = Glu.; (21)..(21) Lys is substituted; (24)..(24) Xaa is Ile.; (33)..(33) Xaa is Leu.; (34)..(34) Xaa is absent.)”, in the experiment with SD rats, the “% Glucose Reduction (Blood Glucose AUC0-120 min)” value is 71.9%, the “Comp/std Liraglutide (ratio of % glucose reduction)” value was found to be 1.73 and the “blood glucose lowering effect vs liraglutide” value is “significantly higher than liraglutide”.

Turning to “Compound 6: SEQ ID NO: 10, Moiety B; differs from liraglutide in having an additional Leu at 32nd position (HAEGTFTSDVSSYLEGQAAK(Moiety B)EFIAWLVRGRGL-OH; reading uncertain)”, in the experiment on SD rats, the “% Glucose Reduction (Blood Glucose AUC0-120 min)” value was 75.8%, the “Comp/std Liraglutide (ratio of % glucose reduction)” value amounted to 1.83 and the “blood glucose lowering effect vs liraglutide” value was “significantly higher than liraglutide”.

Values taken from US11447535B2, “GLP-1 analogues” (Sun Pharmaceutical Industries Limited, priority 2018, dated 2022).
